We go through 1 molecule from patent US12318393B2, “Modulators of orphan nuclear receptors for NASH and other metabolic disorders” (Emory University, priority 2018, dated 2025).

In one data set the test system is CD4+ Th17 cells. Put plainly: Modulation of Th17 populations in human PBMCs (flow cytometry). It counts as cell-based. To be noted: 10 μM, 3 day assay. As to the method: Human peripheral blood mononuclear cells (PBMCs) were isolated from four healthy donors. Four experiments were conducted and analyzed by flow cytometry over 3 day assay. The control group had no drug treatment, a second were treated with 10 μM Compound 1, a third group was stimulated with PHA/IL-2 without treatment, and the fourth group was stimulated with PHA/IL-2 and incubated with 10 μM Compound 1. […] Further, Compound 1 has no effect on Th17 populations in the absence of PHA/IL-2 stimulation.
(In general: In flow cytometry, cells or beads pass a laser one at a time.)

The next data set has as its system miR-122 and Gpase6. Put plainly: Modulation of RORα-regulated genes in healthy C57BL/6 mice. It is filed as in vivo. Particulars: 7.5 mg/kg i.p. once. As to the method: Healthy C57BL/6 mice were injected i.p. once with 7.5 mg/kg Compound 1 or saline control. Mice were sacrificed at 1, 2, and 7 day time points post-injection. miR-122 and Gpase 6 mRNA levels were determined by qRT-PCR for each time point. MicroRNA levels were normalized to RNU6; plasma miR-122 was normalized to spiked in C. elegans miR-39; and mRNA levels were normalized to HPRT.
RNA extraction and quantitative Real-Time PCR analysis. Total RNA, including small RNAs, were isolated from 200 μL of plasma or culture media samples using the miRNeasy Mini kit (Qiagen, Valencia, CA, USA) with 2 minor modifications. First, 200 μl of plasma or culture media were lysed with 1 ml of Qiazol solution. Second, a 50 pmol/l of synthesized single strand Caenorhabditis elegans miRNA (cel-miR-39) was added as the spike-in control to monitor extraction efficiency. The remainder of the RNA extraction was performed according to the manufacturer's instructions. miRNAs were eluted with 30 μl of RNase-free water. Total RNA, including miRNAs, from cells or tissues were isolated using TRIzol reagent (Invitrogen, Carlsbad, CA, USA). cDNA was synthesized using the Quanta Biosciences qScript™ cDNA Synthesis Kit (95047-100) for mRNA analysis, and using the qScript™ microRNA cDNA Synthesis Kit (95107-100) for miRNAs analysis. qRT-PCR of miRNAs and mRNA was performed using the ABI 7900 HT Real-Time PCR System and a SYBR Green PCR Kit: Quanta Cat. #84018 and #84071 respectively. The fold expression and statistical significance were calculated using the 2-ΔΔ Ct method. All experiments were performed in triplicates.

The test system of data set [1] is C57BL/6 mice fed with HFD. Kind of data set: Multi-parameter metabolic assessment (metabolic cages) in HFD-fed C57BL/6 mice. It is filed as in vivo. Particulars: 15 mg/kg 3 times a week, after 2 weeks, 24 hr period, vs saline. The method, then: Metabolic and activity profiles of the mice were measured, by using the Promethion High-Definition Behavioral Phenotyping System (Sable Instruments, Inc., Las Vegas, NV, USA), which is a multi-parameter assessment incorporating sub-systems for open-circuit indirect calorimetry, feeding, water intake, activity, running wheel and body mass measurements in a conventional live-in home cage that minimizes stress. Data acquisition and instrument control were performed using the MetaScreen software version 2.2.18.0, and the obtained raw data were processed using ExpeData version 1.8.4 using an analysis script detailing all aspects of data transformation. […] Respiratory gases were measured by using the GA-3 gas analyzer (Sable Systems Inc., Las Vegas, NV, USA) using a pull-mode, negative-pressure system. Air flow was measured and controlled by the FR-8 (Sable Systems Inc., Las Vegas, NV, USA), with a set flow rate of 2000 mL/min. Water vapor was continuously measured and its dilution effect on 02 and CO2 were mathematically compensated. Effective mass was calculated by ANCOVA analysis. Respiratory quotient (RQ) was calculated as the ratio of VCO2/VO2. Total energy expenditure (TEE) was calculated as VO2×(3.815+1.232×RQ), normalized to effective body mass, and expressed as kcal/h/kgeff.Mass. […]

The next data set concerns HuH7 cell. Put plainly: LDH release from HuH7 cells. It counts as cell-based, human. Particulars: HuH7, 16 h exposure, data not shown.

On to `O=C1Nc2cc(C(=O)N3CCC(Cc4ccccc4)CC3)ccc2Nc2ccccc21` [Compound 1], for which the “total viability of CD4+ T cells” value in the data set on CD4+ Th17 cells (even under PHA/IL-2 stimulation) is “no effect”. Further, the “Th17 total population, presence of PHA/IL-2 stimulation” value in the data set on CD4+ Th17 cells (relative to vehicle-control) was “decreases”. Besides, the “Th17 populations, absence of PHA/IL-2 stimulation” value with CD4+ Th17 cells (unstimulated) is reported as “no effect”. For the same molecule, the “miR-18 and miR-126 levels (controls)” value in the data set on miR-122 and Gpase6 (over 7 days) is “not affected”. In the data set on miR-122 and Gpase6 (up to 7 days post-injection), the “Gpase6 mRNA (RORα-regulated gene)” value is “significantly up-regulated”; the “miR-122 levels in plasma and liver” value is listed as “increased”. In data set [1], the fat oxidation entry is given as “increased” and the “total energy expenditure (TEE)” value is listed as “increased”. The “toxicity to the cells as measured by LDH release” value in the data set on HuH7 cell is listed as “no apparent toxicity”.
